Measurements reported in patent US4499019A, “N-(1-allyl-2-pyrrolidylmethyl)-2,3-dimethoxy-5-sulfamoylbenzamide and derivatives thereof and method for treating hot flushes associated with natural or surgical menopause” (Societe D'Etudes Scientifiques et Industrielles de l'Ile de …, priority 1976, dated 1985).
Where two headings read alike, the source gives them in different places.

Columns and labels:
female hamster = experiment: Effects on ovary and mammary glands in the female hamster; type: in vivo
From the text: (§1) Experiments have been carried out on both the female rat and the female hamster. The changes produced by the compound at the level of the ovary and of vaginal cytology make it possible to predict a point of impact located at the level of the hypothalamo hypophyso-ovarian axis.

[1] = system: psycho neuro-vegetative symptoms of the menopause; experiment: Double-blind study against placebo on the psycho neuro-vegetative symptoms of the menopause; type: in vivo, human; settings: forty observations, double blinding against placebo
From the text: The action of the compound on the psycho neuro-vegetative symptoms of the menopause has been studied with double blinding against placebo.

male rats = settings: rat, in vivo, sc
Method: The compound was administered subcutaneously to male rats. The criterion for the cataleptic state was the immobility of the animal for 30 seconds with its front limbs apart and arranged carefully on cubes of wood 4 centimeters high, thus placing the animal in an unaccustomed and uncomfortable position.

patients = settings: human, in vivo
[2] = Acute toxicity in the Swiss mouse (parenteral and oral administration); settings: in vivo
From the text: (§2) The acute toxicity of the compound was studied in the Swiss mouse with both parenteral and oral administration and in the Wistar rat with oral administration.

[3] = system: psycho neuro-vegetative syndrome of the natural or surgical menopause
Method: A patient, suffering considerable neuro-vegetative symptoms in the natural menopause mainly with attacks of sweating and hot flushes (30-40 a day), was treated orally with N-(1'-allyl-2'-pyrrolidylmethyl)-2,3-dimethoxy-5-sulfamoylbenzamide at a dosage of 100 mg per day. […] The following is a comparison of the patient's neuro-vegetative symptoms before treatment with treatment after eight days:
The patient was treated orally with N-(1'-allyl-2'-pyrrolidylmethyl)-2,3-dimethoxy-5-sulfamoylbenzamide at a dosage rate of 100 mg per day.
A patient had considerable neuro-vegetative symptoms in the natural menopause with mainly hot flushes and headaches.
The patient was treated orally with N-(1'-allyl-2'-pyrrolidylmethyl)-2,3-dimethoxy-5-sulfamoylbenzamide at a dosage rate of 100 mg per day for twenty days.
The patient was treated again in the same manner as previously at a dosage rate of 100 mg per day for twenty days.
A patient suffered neuro-vegetative symptoms in the surgical menopause with mainly hot flushes which set in following a hysterectomy for a fibroid tumor.

Wistar rat = experiment: Acute toxicity in the Wistar rat (oral administration); type: in vivo
From the text: as §2
However, the LD0 is approximately 1.5 g/kg.

[4] = system: psycho neuro-vegetative syndrome of the natural or surgical menopause; experiment: Clinical results in patients with psycho neuro-vegetative syndrome of the menopause (243 patients); type: in vivo, human
female rat = experiment: Effects on ovary, vaginal cytology and mammary glands in the female rat; type: in vivo
From the text: as §1

[5] = Semichronic toxicity in the Wistar rat, oral, four weeks; settings: in vivo, doses 0.5, 1 and 2 g/kg per 24 hours, read-out: relatively or completely non-toxic up to (dose)
Method: In the rat the compound was administered in doses of 0.5, 1 and 2 g/kg per 24 hours.

[6] = female hamster, subcutaneous injections, 3.5 and 10 mg/kg
[7] = Example 18, 100 mg per day oral, after eight days, before: Severe
[8] = Example 19, 100 mg per day oral, eight days, before: Severe
[9] = Example 20, 100 mg per day oral for twenty days, before: Severe
[10] = Example 21, 100 mg per day oral for twenty days, before: Severe
[11] = Example 21, 100 mg per day oral for twenty days, before: Yes
[12] = Example 22, 100 mg per day oral for twenty days, before: Medium
[13] = Example 22, 100 mg per day oral for twenty days, before: Yes
[14] = Example 23, 100 mg per day oral for twenty days, before: Severe
[15] = Example 23, 100 mg per day oral for twenty days, before: Yes
[16] = female rat, subcutaneous injections, 3.5 and 10 mg/kg

## C=CCN1CCCC1CNC(=O)c1cc(S(N)(=O)=O)cc(OC)c1OC (stereo not drawn) [N-(1'-allyl-2'-pyrrolidylmethyl)-2,3-dimethoxy-5-sulfamoylbenzamide]
Female hamster; [6]
  corpora lutea of the ovary: caused the corpora lutea of the ovary to be maintained
  progesterone secretion by the maintained corpora lutea: secreted increased quantities of progesterone
Female hamster; hamster
  development of the mammary glands: development of the mammary glands was noted
Female hamster; hamster, at the highest doses
  secretory activity of the mammary glands: signs of secretory activity
[1]
  difference between compound and placebo: very significant difference
Male rats
  cataleptic action: virtually no cataleptic action
Male rats; 200 mg/kg
  animals made cataleptic: 30%
patients
  clinical and biological tolerance: excellent
  side effects including mammary congestion, galactorrhea, drowsiness, etc. (cases): less than 8 % of the cases
patients; po
  acceptability of the treatment: perfect acceptability
  general tolerance: excellent general tolerance
  premature interruption of treatment, aversion or troublesome side effects: In no case was the course of treatment interrupted prematurely
[2]; ip
  LD50: 320 mg/kg
[2]; iv
  LD50: 124 to 129 mg/kg
[2]; po
  LD50: 1300 mg/kg
[2]; sc
  LD50: 465 to 518 mg/kg
[3]; 100 mg per day oral, first treatment, Examples 19, 20, 22
  results of the treatment: excellent
[3]; Example 18, 100 mg per day oral, after eight days, before: Medium
  Headaches, After Treatment: None
[3]; [7]
  Hot Flushes: Frequency, After Treatment: None
  Hot Flushes: Intensity, After Treatment: None
  Irritability, After Treatment: Slight
[3]; Example 18, 100 mg per day oral, after eight days, before: Slight
  Anxiety, After Treatment: None
[3]; Example 18, 100 mg per day oral, after two days (before: hot flushes 30-40 a day)
  flashes and sweating attacks: 8 per day
[3]; Example 19, 100 mg per day oral, eight days, before: Medium
  Anxiety, After Treatment: Slight
[3]; [8]
  Headaches, After Treatment: Slight
  Hot Flushes: Frequency, After Treatment: None
  Hot Flushes: Intensity, After Treatment: None
  Irritability, After Treatment: Slight
[3]; Example 20, 100 mg per day oral for twenty days, before: Medium
  Headaches, After Treatment: None
[3]; [9]
  Hot Flushes: Frequency, After Treatment: None
  Hot Flushes: Intensity, After Treatment: None
  Irritability, After Treatment: Slight
[3]; [10]
  Hot Flushes: Frequency, Twenty Days After Treatment: None
  Hot Flushes: Intensity, Twenty Days After Treatment: None
[3]; [11]
  Abdominal Meteorism, Twenty Days After Treatment: No
  Anxiety, Twenty Days After Treatment: No
[3]; [12]
  Hot Flushes: Frequency, Twenty Days After Treatment: None
  Hot Flushes: Intensity, Twenty Days After Treatment: None
[3]; [13]
  Anxiety, Twenty Days After Treatment: No
  Irritability, Twenty Days After Treatment: No
[3]; Example 23, 100 mg per day oral for twenty days
  reappearance of symptoms after end of second treatment: appeared again five days after termination of the second treatment
[3]; [14]
  Hot Flushes: Frequency, Twenty Days After Treatment: Slight
  Hot Flushes: Intensity, Twenty Days After Treatment: Slight
[3]; [15]
  Anxiety, Twenty Days After Treatment: No
  Depression, Twenty Days After Treatment: No
  Irritability, Twenty Days After Treatment: Yes
  Libido Change, Twenty Days After Treatment: Yes
Wistar rat; Wistar rat, oral
  LD50: toxicity of the compound was so low that the LD50 could not be determined
Wistar rat; rat, in vivo, po
  LD0: approximately 1.5 g/kg
  LD100: > 4000 mg/kg
[4]; 32 cases
  Vulvar Irritation: Percentage Very Good & Good: 84%
  Vulvar Irritation: Results, Average & Zero (number of cases): 5
  Vulvar Irritation: Results, Very Good & Good (number of cases): 27
[4]; 211 cases
  Hot Flushes: Percentage Very Good & Good: 73.9%
  Hot Flushes: Results, Average & Zero (number of cases): 55
  Hot Flushes: Results, Very Good & Good (number of cases): 156
[4]; cases of hot flushes
  effectiveness excellent or good in hot flushes: 74 % of the cases
[4]; cases of vulvar irritation
  vulvar irritation eliminated: 84 % of the cases
[4]; patients, menopause
  effective in psycho neuro-vegetative syndrome of the menopause (hot flashes, vulvar pruritus, vaginal diseases): 84 % of the cases treated
[4]; patients, natural or surgical menopause
  patient's mental state: parallel improvement in the patient's mental state
Female rat; female rat
  change to the uterus: little change to the uterus
  vaginal cycle: blocked in dioestrus
  vaginal epithelium: primsmatic, indicating the predominance of progesterone over estrogens
Female rat; [16]
  corpora lutea of the ovary: caused the corpora lutea of the ovary to be maintained
  progesterone secretion by the maintained corpora lutea: secreted increased quantities of progesterone
Female rat; mammary gland development
  susceptibility, rat versus hamster: The rat appeared to be more susceptible than the hamster
Female rat; rat
  development of the mammary glands: development of the mammary glands was noted
Female rat; rat, at the highest doses
  secretory activity of the mammary glands: signs of secretory activity
[5]
  NOAEL at 672 h: 1000 mg/kg/day
